From patent publication US8975232B2, “Macrocyclic kinase inhibitors and uses thereof” (President and Fellows of Harvard College, priority 2010, dated 2015)

Columns and labels:
Type in all cases: biochemical
Abl = molecular target: T1, Abl (Homo sapiens, UniProt P00519); experiment: Continuous spectrophotometric kinase activity assay
T1 construct: human c-Abl (residues 229-512); made in house
T1 sequence (P00519 229-512): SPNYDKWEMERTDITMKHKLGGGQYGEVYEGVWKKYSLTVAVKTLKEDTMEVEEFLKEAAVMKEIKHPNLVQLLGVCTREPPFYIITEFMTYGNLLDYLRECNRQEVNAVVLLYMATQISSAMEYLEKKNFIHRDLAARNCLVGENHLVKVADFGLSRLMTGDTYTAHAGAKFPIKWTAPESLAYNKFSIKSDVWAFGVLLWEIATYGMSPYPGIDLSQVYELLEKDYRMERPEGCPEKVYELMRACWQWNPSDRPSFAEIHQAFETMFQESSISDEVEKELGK

[1] = molecular target: T2, Src kinase domain (chicken c-Src residues 251-533) (Gallus gallus, UniProt P00523); experiment: as above; settings: Src kinase domain
T2 construct: chicken c-Src (residues 251-533 and residues 83-533); made in house

BTK = BTK (Homo sapiens, UniProt Q06187); experiment: SelectScreen kinase profiling; settings: 5 μM
Chain of BTK (Q06187 whole entry): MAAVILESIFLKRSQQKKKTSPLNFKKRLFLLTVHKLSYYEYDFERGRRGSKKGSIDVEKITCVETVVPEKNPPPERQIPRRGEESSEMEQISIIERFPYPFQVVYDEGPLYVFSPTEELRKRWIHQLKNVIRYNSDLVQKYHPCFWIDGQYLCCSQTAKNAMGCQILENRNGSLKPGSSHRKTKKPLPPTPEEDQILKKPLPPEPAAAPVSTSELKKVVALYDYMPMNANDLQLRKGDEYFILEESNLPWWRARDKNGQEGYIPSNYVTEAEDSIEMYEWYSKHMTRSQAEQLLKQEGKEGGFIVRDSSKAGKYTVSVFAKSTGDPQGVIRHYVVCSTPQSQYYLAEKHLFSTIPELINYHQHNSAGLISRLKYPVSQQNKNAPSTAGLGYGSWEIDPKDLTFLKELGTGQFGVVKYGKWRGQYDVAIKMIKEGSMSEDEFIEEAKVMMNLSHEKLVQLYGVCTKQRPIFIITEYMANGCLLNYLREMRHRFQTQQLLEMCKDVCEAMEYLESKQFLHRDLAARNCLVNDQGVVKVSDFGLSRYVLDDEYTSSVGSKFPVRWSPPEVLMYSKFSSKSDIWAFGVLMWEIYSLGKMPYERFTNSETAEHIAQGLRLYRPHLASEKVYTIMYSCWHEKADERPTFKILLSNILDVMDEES
Experimental: (§1) Src IC50 determinations and single-point inhibition measurements were performed using Invitrogen's Z′-LYTE Tyr 02 assay kit according to the manufacturer's protocols. All kinase assays were performed at ATP concentrations near KM,ATP values, except where noted otherwise. Active human Src kinase was obtained from Millipore. For kinome profiling and IC50 determinations against non-Src kinases, compounds were submitted to Invitrogen's SelectScreen Kinase Profiling Service.

LCK = LCK (Homo sapiens, UniProt P06239); experiment: SelectScreen kinase profiling; settings: 5 μM
Experimental: as §1

MAPK1 (ERK2) = MAPK1 (ERK2) (Homo sapiens, UniProt P28482); experiment: SelectScreen kinase profiling; settings: 5 μM
Chain of MAPK1 (ERK2) (P28482 whole entry): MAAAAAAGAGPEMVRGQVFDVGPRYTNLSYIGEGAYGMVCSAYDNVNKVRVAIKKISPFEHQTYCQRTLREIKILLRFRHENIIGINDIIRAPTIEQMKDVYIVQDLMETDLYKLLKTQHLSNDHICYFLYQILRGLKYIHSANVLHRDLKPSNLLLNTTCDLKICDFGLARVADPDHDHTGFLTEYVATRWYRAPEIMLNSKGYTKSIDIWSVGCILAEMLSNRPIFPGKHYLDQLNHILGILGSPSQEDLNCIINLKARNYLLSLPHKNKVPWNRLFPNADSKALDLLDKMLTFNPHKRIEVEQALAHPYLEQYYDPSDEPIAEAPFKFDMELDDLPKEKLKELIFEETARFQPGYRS
Experimental: as §1

CHEK1 (CHK1) = CHEK1 (CHK1) (Homo sapiens, UniProt O14757); experiment: SelectScreen kinase profiling; settings: 5 μM
Chain of CHEK1 (CHK1) (O14757 whole entry): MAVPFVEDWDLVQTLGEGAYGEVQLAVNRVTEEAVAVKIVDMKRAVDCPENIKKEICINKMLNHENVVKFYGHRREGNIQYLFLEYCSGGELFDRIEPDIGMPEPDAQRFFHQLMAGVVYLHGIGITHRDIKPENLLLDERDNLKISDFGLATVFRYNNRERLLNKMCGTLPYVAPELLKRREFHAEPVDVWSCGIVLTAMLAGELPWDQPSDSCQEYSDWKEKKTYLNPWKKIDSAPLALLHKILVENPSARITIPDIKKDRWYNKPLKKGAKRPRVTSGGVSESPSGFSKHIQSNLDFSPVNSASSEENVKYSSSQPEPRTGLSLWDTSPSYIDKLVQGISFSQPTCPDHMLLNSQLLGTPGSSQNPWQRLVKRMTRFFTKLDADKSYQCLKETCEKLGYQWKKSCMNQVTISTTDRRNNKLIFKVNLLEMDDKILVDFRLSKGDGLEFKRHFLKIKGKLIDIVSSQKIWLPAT
Experimental: as §1

FGR = FGR (Homo sapiens, UniProt P09769); experiment: SelectScreen kinase profiling; settings: FGR; 5 μM
Chain of FGR (P09769 whole entry): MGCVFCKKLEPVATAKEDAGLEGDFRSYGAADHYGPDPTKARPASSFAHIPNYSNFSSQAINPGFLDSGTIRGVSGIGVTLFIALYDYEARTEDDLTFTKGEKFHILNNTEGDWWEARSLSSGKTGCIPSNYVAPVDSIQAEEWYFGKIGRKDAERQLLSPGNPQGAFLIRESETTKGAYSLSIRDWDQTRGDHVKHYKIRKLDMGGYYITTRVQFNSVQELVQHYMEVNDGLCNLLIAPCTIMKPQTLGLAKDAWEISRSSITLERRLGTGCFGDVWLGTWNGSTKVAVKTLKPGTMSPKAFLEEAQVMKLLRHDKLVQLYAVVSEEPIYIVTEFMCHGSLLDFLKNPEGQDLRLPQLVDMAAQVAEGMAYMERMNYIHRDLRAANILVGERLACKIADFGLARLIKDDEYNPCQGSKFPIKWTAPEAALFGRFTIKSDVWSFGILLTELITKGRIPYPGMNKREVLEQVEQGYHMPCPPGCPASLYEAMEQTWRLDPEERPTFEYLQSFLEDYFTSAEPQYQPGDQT
Experimental: as §1

MARK2 = MARK2 (Homo sapiens, UniProt Q7KZI7); experiment: SelectScreen kinase profiling; settings: 5 μM
Experimental: as §1

PRKACA (PKA) = PRKACA (PKA) (Homo sapiens, UniProt P17612); experiment: SelectScreen kinase profiling; settings: 5 μM
Experimental: as §1

ROCK1 = ROCK1 (Homo sapiens, UniProt Q13464); experiment: SelectScreen kinase profiling; settings: 5 μM
Experimental: as §1

ERBB4 (HER4) = ERBB4 (HER4) (Homo sapiens, UniProt Q15303); experiment: SelectScreen kinase profiling; settings: 5 μM
Experimental: as §1

IKBKB (IKK beta) = IKBKB (IKK beta) (Homo sapiens, UniProt O14920); experiment: SelectScreen kinase profiling; settings: 5 μM
Experimental: as §1

SYK = SYK (Homo sapiens, UniProt P43405); experiment: SelectScreen kinase profiling; settings: 5 μM
Experimental: as §1

HCK = HCK (Homo sapiens, UniProt P08631); experiment: SelectScreen kinase profiling; settings: HCK; 5 μM
Experimental: as §1

AMPK A1/B1/G1 = AMPK A1/B1/G1 (Homo sapiens, UniProt Q13131); experiment: SelectScreen kinase profiling; settings: 5 μM
Experimental: as §1

MAP4K4 (HGK) = MAP4K4 (HGK) (Homo sapiens, UniProt O95819); experiment: SelectScreen kinase profiling; settings: 5 μM
Chain of MAP4K4 (HGK) (O95819 whole entry): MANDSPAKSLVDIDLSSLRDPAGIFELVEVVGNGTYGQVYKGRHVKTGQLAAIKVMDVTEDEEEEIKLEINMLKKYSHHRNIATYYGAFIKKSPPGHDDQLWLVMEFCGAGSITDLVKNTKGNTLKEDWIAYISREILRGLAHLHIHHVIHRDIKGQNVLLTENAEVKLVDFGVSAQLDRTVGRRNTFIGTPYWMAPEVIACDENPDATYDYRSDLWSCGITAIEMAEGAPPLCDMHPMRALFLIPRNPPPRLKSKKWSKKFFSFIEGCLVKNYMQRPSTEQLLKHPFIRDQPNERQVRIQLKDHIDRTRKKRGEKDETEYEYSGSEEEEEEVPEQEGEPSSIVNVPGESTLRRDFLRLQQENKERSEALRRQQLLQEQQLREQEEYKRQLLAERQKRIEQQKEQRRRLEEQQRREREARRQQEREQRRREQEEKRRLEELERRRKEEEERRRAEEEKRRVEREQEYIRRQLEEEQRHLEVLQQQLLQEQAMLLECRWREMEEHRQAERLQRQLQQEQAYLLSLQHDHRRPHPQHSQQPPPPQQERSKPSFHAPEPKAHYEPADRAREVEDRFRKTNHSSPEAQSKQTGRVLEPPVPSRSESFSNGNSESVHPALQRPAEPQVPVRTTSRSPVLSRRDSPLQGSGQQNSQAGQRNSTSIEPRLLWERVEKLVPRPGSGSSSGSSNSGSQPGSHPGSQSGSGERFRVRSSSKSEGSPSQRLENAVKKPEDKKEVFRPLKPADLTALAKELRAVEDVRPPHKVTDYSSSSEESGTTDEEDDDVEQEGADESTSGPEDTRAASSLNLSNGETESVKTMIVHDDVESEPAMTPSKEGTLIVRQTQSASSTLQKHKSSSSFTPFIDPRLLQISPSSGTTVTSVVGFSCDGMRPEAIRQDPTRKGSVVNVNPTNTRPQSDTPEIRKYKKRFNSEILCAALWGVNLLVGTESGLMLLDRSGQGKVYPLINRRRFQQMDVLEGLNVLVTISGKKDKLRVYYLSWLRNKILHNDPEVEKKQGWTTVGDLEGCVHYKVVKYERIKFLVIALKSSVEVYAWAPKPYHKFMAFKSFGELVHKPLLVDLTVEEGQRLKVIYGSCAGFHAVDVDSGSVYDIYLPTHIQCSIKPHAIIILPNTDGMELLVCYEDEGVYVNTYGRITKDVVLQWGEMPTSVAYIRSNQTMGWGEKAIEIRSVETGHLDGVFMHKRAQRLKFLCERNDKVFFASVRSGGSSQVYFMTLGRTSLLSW
Experimental: as §1

MAP2K6 (MKK6) = MAP2K6 (MKK6) (Homo sapiens, UniProt P52564); experiment: SelectScreen kinase profiling; settings: 5 μM
Chain of MAP2K6 (MKK6) (P52564 whole entry): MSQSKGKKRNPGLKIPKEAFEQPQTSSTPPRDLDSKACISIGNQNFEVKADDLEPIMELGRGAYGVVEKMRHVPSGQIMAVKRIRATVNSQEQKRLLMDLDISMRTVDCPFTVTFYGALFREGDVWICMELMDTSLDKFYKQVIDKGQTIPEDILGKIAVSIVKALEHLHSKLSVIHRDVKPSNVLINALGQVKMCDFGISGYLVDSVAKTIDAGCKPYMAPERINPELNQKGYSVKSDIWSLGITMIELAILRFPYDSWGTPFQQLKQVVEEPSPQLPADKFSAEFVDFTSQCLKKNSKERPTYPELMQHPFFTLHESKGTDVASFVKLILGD
Experimental: as §1

LYN B = LYN B (Homo sapiens, UniProt P07948); experiment: SelectScreen kinase profiling; settings: 5 μM
Experimental: as §1

LYN A = LYN A (Homo sapiens, UniProt P07948); experiment: SelectScreen kinase profiling; settings: 5 μM
Experimental: as §1

MAP2K1 (MEK1) = MAP2K1 (MEK1) (Homo sapiens, UniProt Q02750); experiment: SelectScreen kinase profiling; settings: 5 μM
Experimental: as §1

RET = RET (Homo sapiens, UniProt P07949); experiment: SelectScreen kinase profiling; settings: 5 μM
Experimental: as §1

FYN = FYN (Homo sapiens, UniProt P06241); experiment: SelectScreen kinase profiling; settings: FYN; 5 μM
Chain of FYN (P06241 whole entry): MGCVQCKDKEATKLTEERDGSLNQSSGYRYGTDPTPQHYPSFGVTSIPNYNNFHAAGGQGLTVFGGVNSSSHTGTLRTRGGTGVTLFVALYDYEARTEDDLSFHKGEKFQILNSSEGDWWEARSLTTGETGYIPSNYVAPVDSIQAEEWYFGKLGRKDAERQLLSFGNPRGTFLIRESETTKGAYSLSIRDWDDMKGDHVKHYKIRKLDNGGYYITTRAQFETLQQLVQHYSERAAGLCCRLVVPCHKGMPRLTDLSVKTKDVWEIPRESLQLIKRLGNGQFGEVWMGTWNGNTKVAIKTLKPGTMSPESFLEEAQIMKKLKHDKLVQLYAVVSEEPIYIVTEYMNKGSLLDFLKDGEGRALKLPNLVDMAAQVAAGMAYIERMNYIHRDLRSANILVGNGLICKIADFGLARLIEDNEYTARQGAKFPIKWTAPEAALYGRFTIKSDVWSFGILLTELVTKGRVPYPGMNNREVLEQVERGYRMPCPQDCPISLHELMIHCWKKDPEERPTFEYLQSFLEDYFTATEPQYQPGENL
Experimental: as §1

[2] = molecular target: MAPK14 (p38 alpha) Direct (Homo sapiens, UniProt Q16539); experiment: SelectScreen kinase profiling; settings: 5 μM
Experimental: as §1

AURKB (Aurora B) = AURKB (Aurora B) (Homo sapiens, UniProt Q96GD4); experiment: SelectScreen kinase profiling; settings: AURKB (Aurora B); 5 μM
Chain of AURKB (Aurora B) (Q96GD4 whole entry): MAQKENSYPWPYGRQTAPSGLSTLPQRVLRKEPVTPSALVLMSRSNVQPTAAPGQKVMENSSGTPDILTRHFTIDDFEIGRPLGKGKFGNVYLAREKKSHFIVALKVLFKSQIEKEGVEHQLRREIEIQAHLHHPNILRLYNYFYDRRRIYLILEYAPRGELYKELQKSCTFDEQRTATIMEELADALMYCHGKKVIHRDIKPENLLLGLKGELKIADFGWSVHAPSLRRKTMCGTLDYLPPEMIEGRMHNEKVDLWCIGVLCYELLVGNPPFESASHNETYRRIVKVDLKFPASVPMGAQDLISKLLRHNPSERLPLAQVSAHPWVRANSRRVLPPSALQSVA
Experimental: as §1

Src kinase = Src kinase (Homo sapiens, UniProt P12931); experiment: Z'-LYTE kinase assay (Invitrogen), Src; set-up: full-length kinase in the Z-LYTE assay vs. kinase domain in the current study; purchased Millipore
Chain of Src kinase (P12931 whole entry, the tested form may be a part): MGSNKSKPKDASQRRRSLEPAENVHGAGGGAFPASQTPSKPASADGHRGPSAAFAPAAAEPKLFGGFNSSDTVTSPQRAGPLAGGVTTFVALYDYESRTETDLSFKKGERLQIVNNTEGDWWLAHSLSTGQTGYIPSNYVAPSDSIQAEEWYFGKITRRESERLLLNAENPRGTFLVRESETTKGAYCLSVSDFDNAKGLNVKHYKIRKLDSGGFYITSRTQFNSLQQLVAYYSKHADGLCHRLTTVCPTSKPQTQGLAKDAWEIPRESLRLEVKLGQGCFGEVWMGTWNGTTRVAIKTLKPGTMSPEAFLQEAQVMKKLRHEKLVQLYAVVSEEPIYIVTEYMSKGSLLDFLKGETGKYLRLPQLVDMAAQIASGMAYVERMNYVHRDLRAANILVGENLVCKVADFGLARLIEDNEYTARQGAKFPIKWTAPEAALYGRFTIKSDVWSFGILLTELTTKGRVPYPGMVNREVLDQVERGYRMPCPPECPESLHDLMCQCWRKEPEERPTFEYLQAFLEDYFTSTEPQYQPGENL
Procedure, shortened: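 Human Src activity measured by FRET-based Z′-LYTE Tyr 02 peptide assay at ATP near KM,ATP unless noted. IC50s and single-point inhibition determined over varying macrocycle concentrations. Non-Src kinases tested via a commercial profiling service.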

[3] = 5 μM ATP, 100 μM Src optimal peptide
[4] = 250 μM ATP, 300 μM Src optimal peptide

NC(=O)[C@@H]1CCCNC(=O)[C@H](Cc2ccc([N+](=O)[O-])cc2)NC(=O)[C@H](Cc2ccco2)NC(=O)[C@H](CC2CC2)NC(=O)/C=C/C(=O)N1 [trans-A10-B1-C5-D6]
IC50 (Abl; [3]): > 100 µM
IC50 (Abl; 5 μM ATP, 300 μM Src optimal peptide): > 100 µM
IC50 (Abl; [4]): > 100 µM
IC50 [1, 3]: 11 µM
IC50 [1, 4]: 21 µM
% inhibition (BTK): 4%
% inhibition (LCK): 17%
% inhibition (MAPK1 (ERK2)): −3%
% inhibition (CHEK1 (CHK1)): −15%
% inhibition (FGR): 13%
% inhibition (MARK2): 1%
% inhibition (PRKACA (PKA)): −1%
% inhibition (ROCK1): 12%
% inhibition (ERBB4 (HER4)): 4%
% inhibition (IKBKB (IKK beta)): −1%
% inhibition (SYK): −1%
% inhibition (HCK): 9%
% inhibition (AMPK A1/B1/G1): −1%
% inhibition (MAP4K4 (HGK)): −1%
% inhibition (MAP2K6 (MKK6)): −1%
% inhibition (LYN B): 7%
% inhibition (LYN A): 9%
% inhibition (MAP2K1 (MEK1)): −6%
% inhibition (RET): 6%
% inhibition (FYN): −1%
% inhibition [2]: −9%
% inhibition (AURKB (Aurora B)): 0%
% inhibition (Src kinase; SRC, 5 μM, data from FIG. 8 and Table 6): 86%
mode of Src inhibition (Src kinase; apparent KM for ATP versus macrocycle concentration): ATP-competitive
